In assay [1] the target is T1, HiBit-BRG1 fusion protein (Homo sapiens, UniProt P51532).
T1 construct: expressed in transfected cells
Nature of the assay: HiBiT-BRG1 cell-based degradation assay (Nano-Glo HiBiT Lytic Detection, 24 h). To be noted: stable HeLa cell line expressing HiBit-BRG1 and LgBit, top dose 30 μM, read-out: BRG1 HiBit Degradation Maximum (%). The method, then: (§1) Procedure: A stable HeLa cell line expressing HiBiT-BRM was generated. On day 0, 5000 cells were seeded in 40 μL of media into each well of 384-well cell culture plates. On day 1, cells were treated with 120 nL DMSO or 120 nL of 3-fold serially DMSO-diluted compounds (10 points in duplicate with 30 μM as final top dose). Subsequently plates were incubated for 24 h in a standard tissue culture incubator and equilibrated at room temperature for 15 minutes. Nano-Glo HiBiT Lytic Detection System (Promega N3050) reagent was freshly prepared and 20 ul was added to each well. Upon addition of this LgBit-containing reagent, the HiBiT and LgBiT proteins associate to form the luminescent NanoBiT luciferase. The plates were shaken for 10 minutes at room temperature and the bioluminescence read using an EnVision plate reader (PerkinElmer).
For measurement of BRG1 degradation, a stable HeLa cell line expressing HiBit-BRG1 and LgBit was generated. The same protocol as above was then followed.
(§2) The degradation % was calculated using the following formula: % degradation=100%−100%×(Lumsample−LumLC)/(LumHC−LumLC). DMSO treated cells are employed as High Control (HC) and 2 μM of a known BRM/BRG1 degrader standard treated cells are employed as Low Control (LC).
(In general: With HiBiT, luminescence reflects the tagged protein that the partner subunit can reach.)

The target in the next assay is T2, HiBit-BRM fusion protein (Homo sapiens, UniProt P51531).
T2 construct: expressed in transfected cells
The experiment in a line: HiBiT-BRM cell-based degradation assay (Nano-Glo HiBiT Lytic Detection, 24 h). To be noted: stable HeLa cell line expressing HiBiT-BRM, top dose 30 μM. The protocol:
as §1, §2

Structures are written as SMILES. Bounds are passed on as bounds.

T2 sequence (P51531 whole entry, the tested form may be a part): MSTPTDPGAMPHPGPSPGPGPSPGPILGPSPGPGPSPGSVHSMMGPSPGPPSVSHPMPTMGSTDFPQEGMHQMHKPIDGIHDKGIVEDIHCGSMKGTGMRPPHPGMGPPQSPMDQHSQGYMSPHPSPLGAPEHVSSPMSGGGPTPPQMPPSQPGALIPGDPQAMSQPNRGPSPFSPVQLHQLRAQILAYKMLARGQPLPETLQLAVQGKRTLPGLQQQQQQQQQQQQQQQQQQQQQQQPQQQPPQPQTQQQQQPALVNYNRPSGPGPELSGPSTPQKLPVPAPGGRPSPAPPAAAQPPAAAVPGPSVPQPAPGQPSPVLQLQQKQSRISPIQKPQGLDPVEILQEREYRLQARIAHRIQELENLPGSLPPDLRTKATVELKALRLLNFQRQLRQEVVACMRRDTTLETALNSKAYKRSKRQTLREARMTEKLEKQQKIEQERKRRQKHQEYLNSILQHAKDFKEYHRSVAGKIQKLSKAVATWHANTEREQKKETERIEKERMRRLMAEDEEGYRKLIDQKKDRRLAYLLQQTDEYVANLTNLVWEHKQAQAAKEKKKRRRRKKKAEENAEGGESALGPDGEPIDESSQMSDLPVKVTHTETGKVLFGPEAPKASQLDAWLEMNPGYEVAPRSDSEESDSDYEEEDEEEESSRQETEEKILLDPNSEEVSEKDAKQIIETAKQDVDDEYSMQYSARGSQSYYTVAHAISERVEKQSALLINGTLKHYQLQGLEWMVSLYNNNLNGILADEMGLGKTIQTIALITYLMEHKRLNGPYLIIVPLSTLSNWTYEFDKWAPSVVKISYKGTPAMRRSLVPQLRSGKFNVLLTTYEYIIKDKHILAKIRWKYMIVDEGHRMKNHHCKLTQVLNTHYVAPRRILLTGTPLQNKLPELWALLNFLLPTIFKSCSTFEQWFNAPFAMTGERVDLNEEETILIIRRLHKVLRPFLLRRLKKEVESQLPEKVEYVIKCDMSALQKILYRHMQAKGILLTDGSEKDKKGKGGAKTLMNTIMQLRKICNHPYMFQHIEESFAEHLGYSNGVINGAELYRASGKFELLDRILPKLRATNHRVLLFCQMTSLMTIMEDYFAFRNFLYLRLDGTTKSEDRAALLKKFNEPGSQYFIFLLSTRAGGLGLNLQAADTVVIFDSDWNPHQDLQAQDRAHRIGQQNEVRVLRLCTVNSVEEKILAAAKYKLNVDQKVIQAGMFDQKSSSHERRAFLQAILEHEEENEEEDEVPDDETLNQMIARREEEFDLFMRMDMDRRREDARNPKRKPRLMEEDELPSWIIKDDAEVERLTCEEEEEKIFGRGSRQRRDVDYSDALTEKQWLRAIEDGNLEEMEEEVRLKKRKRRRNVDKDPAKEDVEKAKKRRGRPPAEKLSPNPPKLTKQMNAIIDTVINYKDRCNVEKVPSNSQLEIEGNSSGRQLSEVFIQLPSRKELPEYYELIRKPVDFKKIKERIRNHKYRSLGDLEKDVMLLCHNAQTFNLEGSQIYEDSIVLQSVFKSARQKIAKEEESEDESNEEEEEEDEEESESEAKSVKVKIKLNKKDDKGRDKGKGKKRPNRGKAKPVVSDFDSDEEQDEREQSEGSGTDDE
T1 sequence (P51532 whole entry, the tested form may be a part): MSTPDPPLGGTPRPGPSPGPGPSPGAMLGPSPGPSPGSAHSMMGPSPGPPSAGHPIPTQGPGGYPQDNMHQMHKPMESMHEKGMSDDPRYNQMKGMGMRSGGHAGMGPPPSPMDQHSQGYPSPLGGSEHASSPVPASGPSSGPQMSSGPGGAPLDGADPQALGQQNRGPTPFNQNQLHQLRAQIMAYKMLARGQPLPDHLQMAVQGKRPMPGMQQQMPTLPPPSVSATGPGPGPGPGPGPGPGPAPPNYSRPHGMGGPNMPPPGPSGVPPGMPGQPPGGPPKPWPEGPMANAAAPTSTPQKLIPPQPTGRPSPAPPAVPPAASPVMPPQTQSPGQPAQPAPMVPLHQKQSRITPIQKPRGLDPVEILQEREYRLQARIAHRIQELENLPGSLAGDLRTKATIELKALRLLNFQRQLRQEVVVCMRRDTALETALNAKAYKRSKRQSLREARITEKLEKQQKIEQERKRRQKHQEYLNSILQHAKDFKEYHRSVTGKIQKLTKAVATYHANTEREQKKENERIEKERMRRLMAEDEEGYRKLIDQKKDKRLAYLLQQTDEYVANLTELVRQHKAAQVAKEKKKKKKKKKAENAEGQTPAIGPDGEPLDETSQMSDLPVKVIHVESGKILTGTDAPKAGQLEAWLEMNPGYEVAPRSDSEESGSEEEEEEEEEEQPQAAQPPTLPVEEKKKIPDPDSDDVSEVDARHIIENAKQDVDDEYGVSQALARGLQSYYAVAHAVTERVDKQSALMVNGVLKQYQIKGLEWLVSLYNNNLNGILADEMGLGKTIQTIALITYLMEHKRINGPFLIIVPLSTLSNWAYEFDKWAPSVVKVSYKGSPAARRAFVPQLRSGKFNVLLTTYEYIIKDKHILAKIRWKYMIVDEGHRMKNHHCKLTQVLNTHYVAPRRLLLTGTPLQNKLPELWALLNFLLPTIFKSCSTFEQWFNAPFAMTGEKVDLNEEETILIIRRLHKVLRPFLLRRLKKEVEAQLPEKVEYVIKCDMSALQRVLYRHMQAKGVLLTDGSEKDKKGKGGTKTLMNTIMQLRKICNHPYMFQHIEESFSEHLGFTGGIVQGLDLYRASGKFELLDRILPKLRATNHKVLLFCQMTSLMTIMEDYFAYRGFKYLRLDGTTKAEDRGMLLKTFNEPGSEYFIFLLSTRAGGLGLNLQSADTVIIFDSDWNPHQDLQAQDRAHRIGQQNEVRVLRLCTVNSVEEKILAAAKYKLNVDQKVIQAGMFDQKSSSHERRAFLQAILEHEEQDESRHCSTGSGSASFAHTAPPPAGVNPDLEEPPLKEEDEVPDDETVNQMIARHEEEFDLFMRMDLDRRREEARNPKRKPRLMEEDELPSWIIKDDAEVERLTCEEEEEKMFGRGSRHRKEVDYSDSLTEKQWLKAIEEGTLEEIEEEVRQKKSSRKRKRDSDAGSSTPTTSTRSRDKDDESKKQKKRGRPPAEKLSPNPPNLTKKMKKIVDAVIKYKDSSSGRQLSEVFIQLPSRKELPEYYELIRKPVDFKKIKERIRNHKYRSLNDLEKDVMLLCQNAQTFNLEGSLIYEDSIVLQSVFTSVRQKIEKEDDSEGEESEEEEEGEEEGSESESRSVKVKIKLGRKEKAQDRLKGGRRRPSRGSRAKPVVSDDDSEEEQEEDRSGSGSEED

`Nc1nnc(-c2ccccc2O)cc1OCCC12CC(NC(=O)CCCCCCCOc3cccc4c3C(=O)N(C3CCC(=O)NC3=O)C4=O)(C1)C2` (centres unmarked) [Compound 21, N-[3-(2-[[3-amino-6-(2-hydroxyphenyl)pyridazin-4-yl]oxy]ethyl)bicyclo[1.1.1]pentan-1-yl]-8-[[2-(2,6-dioxopiperidin-3-yl)-1,3-dioxoisoindol-4-yl]oxy]octanamide]: in assay [1], the Dmax was < 50%. Also, at HiBit-BRM fusion protein, the “BRM HiBit Degradation Maximum (%)” value is listed as “C (“C” indicates maximum degradation < 50%)”.
The matching figures for `Nc1nnc(-c2ccccc2O)cc1OCC12CC(C(=O)NCCOCCOCCOCCNC(=O)COc3cccc4c3C(=O)N(C3CCC(=O)NC3=O)C4=O)(C1)C2` (centres unmarked) [Compound 92, 3-(((3-amino-6-(2-hydroxyphenyl)pyridazin-4-yl)oxy)methyl)-N-(1-((2-(2,6-dioxopiperidin-3-yl)-1,3-dioxoisoindolin-4-yl)oxy)-2-oxo-6,9,12-trioxa-3-azatetradecan-14-yl)bicyclo[1.1.1]pentane-1-carboxamide]: < 50% and “C (“C” indicates maximum degradation < 50%)”.
The corresponding values for `Nc1nnc(-c2ccccc2O)cc1OCCC12CC(NC(=O)CCCCCCOc3cccc4c3C(=O)N(C3CCC(=O)NC3=O)C4=O)(C1)C2` (centres unmarked) [Compound 20, N-[3-(2-[[3-amino-6-(2-hydroxyphenyl)pyridazin-4-yl]oxy]ethyl)bicyclo[1.1.1]pentan-1-yl]-7-[[2-(2,6-dioxopiperidin-3-yl)-1,3-dioxoisoindol-4-yl]oxy]heptanamide] are < 50% and “C (“C” indicates maximum degradation < 50%)”.
The matching figures for `Nc1nnc(-c2ccccc2O)cc1OCC12CC(CNC(=O)CCCCOc3cccc4c3C(=O)N(C3CCC(=O)NC3=O)C4=O)(C1)C2` (centres unmarked) [Compound 3, N-[[3-([[3-amino-6-(2-hydroxyphenyl)pyridazin-4-yl]oxy]methyl)bicyclo[1.1.1]pentan-1-yl]methyl]-5-[[2-(2,6-dioxopiperidin-3-yl)-1,3-dioxoisoindol-4-yl]oxy]pentanamide]: < 50% and “C (“C” indicates maximum degradation < 50%)”.
With `Nc1nnc(-c2ccccc2O)cc1OCC12CC(C(=O)N3CCN(CCCCCOc4ccc5c(c4)C(=O)N(C4CCC(=O)NC4=O)C5=O)CC3)(C1)C2` (centres unmarked) [Compound 99, 5-((5-(4-(3-(((3-amino-6-(2-hydroxyphenyl)pyridazin-4-yl)oxy)methyl)bicyclo[1.1.1]pentane-1-carbonyl)piperazin-1-yl)pentyl)oxy)-2-(2,6-dioxopiperidin-3-yl)isoindoline-1,3-dione; formic acid], the Dmax in assay [1] was < 50%. Also, at HiBit-BRM fusion protein, the “BRM HiBit Degradation Maximum (%)” value is given as “C (“C” indicates maximum degradation < 50%)”.
The corresponding values for `Nc1nnc(-c2ccccc2O)cc1OCC12CC(C(=O)N3CCC4(CC3)CC(Oc3ccc5c(c3)C(=O)N(C3CCC(=O)NC3=O)C5=O)C4)(C1)C2` (centres unmarked) [Compound 53, 5-((7-(3-(((3-amino-6-(2-hydroxyphenyl)pyridazin-4-yl)oxy)methyl)bicyclo[1.1.1]pentane-1-carbonyl)-7-azaspiro[3.5]nonan-2-yl)oxy)-2-(2,6-dioxopiperidin-3-yl)isoindoline-1,3-dione] are < 50% and “C (“C” indicates maximum degradation < 50%)”.
`Nc1nnc(-c2ccccc2O)cc1OCCC12CC(NC(=O)CCCOc3cccc4c3C(=O)N(C3CCC(=O)NC3=O)C4=O)(C1)C2` (centres unmarked) [Compound 18, N-(3-(2-((3-amino-6-(2-hydroxyphenyl)pyridazin-4-yl)oxy)ethyl)bicyclo[1.1.1]pentan-1-yl)-4-((2-(2,6-dioxopiperidin-3-yl)-1,3-dioxoisoindolin-4-yl)oxy)butanamide]: the Dmax in assay [1] is < 50%. The “BRM HiBit Degradation Maximum (%)” value on HiBit-BRM fusion protein was “C (“C” indicates maximum degradation < 50%)”.
The matching figures for `Nc1nnc(-c2ccccc2O)cc1OCC12CC(C(=O)NCCOCCOCCNc3ccc4c(c3)C(=O)N(C3CCC(=O)NC3=O)C4=O)(C1)C2` (centres unmarked) [Compound 66, 3-(((3-amino-6-(2-hydroxyphenyl)pyridazin-4-yl)oxy)methyl)-N-(2-(2-(2-((2-(2,6-dioxopiperidin-3-yl)-1,3-dioxoisoindolin-5-yl)amino)ethoxy)ethoxy)ethyl)bicyclo[1.1.1]pentane-1-carboxamide]: < 50% and “C (“C” indicates maximum degradation < 50%)”.
The matching figures for `Nc1nnc(-c2ccccc2O)cc1OCC12CC(C(=O)N3CCN(CCOc4ccc5c(c4)C(=O)N(C4CCC(=O)NC4=O)C5=O)CC3)(C1)C2` (centres unmarked) [Compound 103, 5-(2-(4-(3-(((3-amino-6-(2-hydroxyphenyl)pyridazin-4-yl)oxy)methyl)bicyclo[1.1.1]pentane-1-carbonyl)piperazin-1-yl)ethoxy)-2-(2,6-dioxopiperidin-3-yl)isoindoline-1,3-dione; formic acid]: < 50% and “C (“C” indicates maximum degradation < 50%)”.
The corresponding values for `Nc1nnc(-c2ccccc2O)cc1OCC12CC(C(=O)NCCS(=O)(=O)CCNc3cccc4c3C(=O)N(C3CCC(=O)NC3=O)C4=O)(C1)C2` (centres unmarked) [Compound 74, 3-(((3-amino-6-(2-hydroxyphenyl)pyridazin-4-yl)oxy)methyl)-N-(2-((2-((2-(2,6-dioxopiperidin-3-yl)-1,3-dioxoisoindolin-4-yl)amino)ethyl)sulfonyl)ethyl)bicyclo[1.1.1]pentane-1-carboxamide] are < 50% and “C (“C” indicates maximum degradation < 50%)”.
For `Nc1nnc(-c2ccccc2O)cc1OCC12CC(C(=O)NCCCCCNc3ccc4c(c3)C(=O)N(C3CCC(=O)NC3=O)C4=O)(C1)C2` (centres unmarked) [Compound 63, 3-(((3-amino-6-(2-hydroxyphenyl)pyridazin-4-yl)oxy)methyl)-N-(5-((2-(2,6-dioxopiperidin-3-yl)-1,3-dioxoisoindolin-5-yl)amino)pentyl)bicyclo[1.1.1]pentane-1-carboxamide; formic acid], the Dmax in assay [1] is < 50%. The “BRM HiBit Degradation Maximum (%)” value on HiBit-BRM fusion protein is “C (“C” indicates maximum degradation < 50%)”.
With `Cc1ncsc1-c1ccc(CNC(=O)[C@@H]2C[C@@H](O)CN2C(=O)[C@@H](NC(=O)CCCCC(=O)NC23CC(CCOc4cc(-c5ccccc5O)nnc4N)(C2)C3)C(C)(C)C)cc1` [Compound 43, N1-(3-(2-((3-amino-6-(2-hydroxyphenyl)pyridazin-4-yl)oxy)ethyl)bicyclo[1.1.1]pentan-1-yl)-N6-((S)-1-((2S,4R)-4-hydroxy-2-((4-(4-methylthiazol-5-yl)benzyl)carbamoyl)pyrrolidin-1-yl)-3,3-dimethyl-1-oxobutan-2-yl)adipamide], in assay [1], the Dmax was > 75%. For the same compound, on HiBit-BRM fusion protein, the “BRM HiBit Degradation Maximum (%)” value is given as “A (“A” indicates maximum degradation ≥ 75%)”.
The matching figures for `Nc1nnc(-c2ccccc2O)cc1OCC12CC(C(=O)NCCCCCCCCNc3cccc4c3CN(C3CCC(=O)NC3=O)C4=O)(C1)C2` (centres unmarked) [Compound 58, 3-(((3-amino-6-(2-hydroxyphenyl)pyridazin-4-yl)oxy)methyl)-N-(8-((2-(2,6-dioxopiperidin-3-yl)-1-oxoisoindolin-4-yl)amino)octyl)bicyclo[1.1.1]pentane-1-carboxamide]: < 50% and “C (“C” indicates maximum degradation < 50%)”.
The corresponding values for `Nc1nnc(-c2ccccc2O)cc1OCC12CC(C(=O)N3CCC(CN4CCN(c5ccc6c(c5)C(=O)N(C5CCC(=O)NC5=O)C6=O)CC4)CC3)(C1)C2` (centres unmarked) [Compound 101, 5-(4-((1-(3-(((3-amino-6-(2-hydroxyphenyl)pyridazin-4-yl)oxy)methyl)bicyclo[1.1.1]pentane-1-carbonyl)piperidin-4-yl)methyl)piperazin-1-yl)-2-(2,6-dioxopiperidin-3-yl)isoindoline-1,3-dione] are < 50% and “B (“B” indicates maximum degradation ≥ 50%)”.
As for `Cc1nc2cccc(NCCOCCOCCNC(=O)C34CC(COc5cc(-c6ccccc6O)nnc5N)(C3)C4)c2c(=O)n1C1CCC(=O)NC1=O` (centres unmarked) [Compound 61, 3-(((3-amino-6-(2-hydroxyphenyl)pyridazin-4-yl)oxy)methyl)-N-(2-(2-(2-((3-(2,6-dioxopiperidin-3-yl)-2-methyl-4-oxo-3,4-dihydroquinazolin-5-yl)amino)ethoxy)ethoxy)ethyl)bicyclo[1.1.1]pentane-1-carboxamide], the Dmax in assay [1] is < 50%. Further, on HiBit-BRM fusion protein, the “BRM HiBit Degradation Maximum (%)” value was “C (“C” indicates maximum degradation < 50%)”.
`Nc1nnc(-c2ccccc2O)cc1OCCC12CC(NC(=O)CCCCCCCCNc3ccc4c(c3)C(=O)N(C3CCC(=O)NC3=O)C4=O)(C1)C2` (centres unmarked) [Compound 25, N-[3-(2-[[3-amino-6-(2-hydroxyphenyl)pyridazin-4-yl]oxy]ethyl)bicyclo[1.1.1]pentan-1-yl]-9-[[2-(2,6-dioxopiperidin-3-yl)-1,3-dioxoisoindol-5-yl]amino]nonanamide]: the Dmax in assay [1] was < 50%. Also, the “BRM HiBit Degradation Maximum (%)” value on HiBit-BRM fusion protein is recorded as “C (“C” indicates maximum degradation < 50%)”.

(Values after patent publication US12552775B2, “Compounds and uses thereof” (Foghorn Therapeutics Inc., priority 2020, dated 2026).)
